This is an account of results in the supplement of paper PMC10307832.

Holding throughout (assay): relative viability (nuclei count vs DMSO), 5 days (fraction); higher = more cells survive
Compound in assay [1]: C1CNCCC1C2=CC(=NN2)C3=CC=NC=C3 + COc1cccc2cc(-c3nc([C@H]4CC[C@H](C(=O)O)CC4)n4ncnc(N)c34)[nH]c12 [OSI-027] (partner 0.5 µM)
The essentials: (§1)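 Lung cancer cell lines in 1536-well plates were dosed by pin tool the day after seeding, either with one drug alone or with a fixed anchor-drug dose plus five library-drug doses (not always all listed) in √10 steps. After 5 days, cells were fixed and their nuclei stained in one step (final 0.05% Triton X-100, 1% formaldehyde, 1 ug/ml Hoechst), then counted on 4× images. Relative viability is the nuclei count in treated wells divided by that in vehicle wells. Values are medians of duplicate plates.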

Compound in assay [2]: C[C@@H](N)c1ccc(C(=O)Nc2ccnc3[nH]ccc23)cc1 + CC(C)C[C@H](NC(=O)[C@H](Cc1ccccc1)NC(=O)c1cnccn1)B(O)O [Bortezomib] (partner 0.002 µM)
An outline of the steps:
as §1

Compound in the assay “Tanzisertib + Bortezomib”: O[C@H]1CC[C@H](Nc2ncc3nc(Nc4c(F)cc(F)cc4F)n([C@H]4CCOC4)c3n2)CC1 [Tanzisertib] + CC(C)C[C@H](NC(=O)[C@H](Cc1ccccc1)NC(=O)c1cnccn1)B(O)O [Bortezomib] (partner 0.002 µM)
The essentials: as §1

Compound in assay [3]: C1CNCCC1C2=CC(=NN2)C3=CC=NC=C3 + N=C(N)NC(=N)NCCc1ccccc1 [Phenformin] (partner 250 µM)
An outline of the steps: as §1

As for NCI-H1915, the relative viability amounted to 0.643 in assay [1] (first compound 0.08 µM); 0.641 in assay [1] (first compound 0.8 µM); 0.623 in assay [1] (first compound 2.53 µM); 0.646 in assay [1] (first compound 8 µM); 0.988 in assay [2] (first compound 0.04 µM); 1.01 in assay [2] (first compound 0.1265 µM). Also, the relative viability in assay [2] (first compound 0.4 µM) turned out to be 1.01; in assay [2] (first compound 4 µM), 0.823; with Tanzisertib + Bortezomib (first compound 0.08 µM), 0.992; with Tanzisertib + Bortezomib (first compound 0.253 µM), 1.07; with Tanzisertib + Bortezomib (first compound 0.8 µM) it was 1; with Tanzisertib + Bortezomib (first compound 2.53 µM), 0.978. Besides, the relative viability in the assay with Tanzisertib + Bortezomib (first compound 8 µM) worked out at 0.989; in assay [3] (first compound 0.08 µM) it was 0.376; in assay [3] (first compound 0.8 µM), 0.389; in assay [3] (first compound 2.53 µM), 0.346; in assay [3] (first compound 8 µM), 0.377.

As for NCI-H1975, the relative viability in assay [1] (first compound 0.08 µM) stood at 0.703; in assay [1] (first compound 0.8 µM), 0.778; in assay [1] (first compound 2.53 µM) it was 0.774; in assay [1] (first compound 8 µM) it was 0.777; in assay [2] (first compound 0.04 µM) it was 0.314; in assay [2] (first compound 0.1265 µM), 0.365. For the same cell line, the relative viability in assay [2] (first compound 0.4 µM) is 0.37; in assay [2] (first compound 1.265 µM), 0.308; in assay [2] (first compound 4 µM) it was 0.244; with Tanzisertib + Bortezomib (first compound 0.08 µM) it was 0.428; with Tanzisertib + Bortezomib (first compound 0.253 µM), 0.467; with Tanzisertib + Bortezomib (first compound 0.8 µM), 0.371. Besides, the relative viability turned out to be 0.401 in the assay with Tanzisertib + Bortezomib (first compound 2.53 µM); 0.347 with Tanzisertib + Bortezomib (first compound 8 µM); 0.406 in assay [3] (first compound 0.08 µM); 0.412 in assay [3] (first compound 0.8 µM); 0.415 in assay [3] (first compound 2.53 µM); 0.417 in assay [3] (first compound 8 µM).

As to NCI-H1993, the relative viability is 0.581 in assay [1] (first compound 0.08 µM); 0.533 in assay [1] (first compound 0.8 µM); 0.529 in assay [1] (first compound 2.53 µM); 0.578 in assay [1] (first compound 8 µM); 1.19 in assay [2] (first compound 0.04 µM); 1.13 in assay [2] (first compound 0.1265 µM). Besides, the relative viability is 0.943 in assay [2] (first compound 1.265 µM); 1.15 in assay [2] (first compound 4 µM); 1.14 with Tanzisertib + Bortezomib (first compound 0.08 µM); 1.07 in the assay with Tanzisertib + Bortezomib (first compound 0.253 µM); 1.12 in the assay with Tanzisertib + Bortezomib (first compound 0.8 µM); 1.04 with Tanzisertib + Bortezomib (first compound 2.53 µM). In addition, the relative viability with Tanzisertib + Bortezomib (first compound 8 µM) was 0.857; in assay [3] (first compound 0.08 µM) it was 0.497; in assay [3] (first compound 0.8 µM) it was 0.488; in assay [3] (first compound 2.53 µM), 0.547; in assay [3] (first compound 8 µM), 0.533.

Regarding NCI-H2009, the relative viability in assay [1] (first compound 0.08 µM) worked out at 0.761; in assay [1] (first compound 0.8 µM), 0.699; in assay [1] (first compound 2.53 µM), 0.749; in assay [1] (first compound 8 µM), 0.725; in assay [2] (first compound 0.04 µM), 0.89; in assay [2] (first compound 0.1265 µM) it was 0.928. Also, the relative viability was 0.969 in assay [2] (first compound 0.4 µM); 0.354 in assay [2] (first compound 1.265 µM); 0.827 in assay [2] (first compound 4 µM); 1.34 with Tanzisertib + Bortezomib (first compound 0.08 µM); 1 in the assay with Tanzisertib + Bortezomib (first compound 0.253 µM); 1.01 with Tanzisertib + Bortezomib (first compound 0.8 µM). The relative viability was 1.13 with Tanzisertib + Bortezomib (first compound 2.53 µM); 0.968 in the assay with Tanzisertib + Bortezomib (first compound 8 µM); 0.481 in assay [3] (first compound 0.08 µM); 0.528 in assay [3] (first compound 0.8 µM); 0.51 in assay [3] (first compound 2.53 µM); 0.489 in assay [3] (first compound 8 µM).

Take NCI-H2023: the relative viability in assay [1] (first compound 0.08 µM) stood at 0.347; in assay [1] (first compound 0.8 µM), 0.48; in assay [1] (first compound 2.53 µM), 0.457; in assay [1] (first compound 8 µM), 0.503; in assay [2] (first compound 0.04 µM) it was 0.948; in assay [2] (first compound 0.1265 µM), 0.925. Also, the relative viability in assay [2] (first compound 0.4 µM) was 1.1; in assay [2] (first compound 1.265 µM), 0.421; in assay [2] (first compound 4 µM), 0.953; in the assay with Tanzisertib + Bortezomib (first compound 0.08 µM), 1.18; in the assay with Tanzisertib + Bortezomib (first compound 0.253 µM), 1; in the assay with Tanzisertib + Bortezomib (first compound 0.8 µM), 1.06. Also, the relative viability with Tanzisertib + Bortezomib (first compound 2.53 µM) was found to be 0.855; in the assay with Tanzisertib + Bortezomib (first compound 8 µM), 0.371; in assay [3] (first compound 0.08 µM) it was 0.357; in assay [3] (first compound 0.8 µM), 0.411; in assay [3] (first compound 2.53 µM), 0.498; in assay [3] (first compound 8 µM), 0.423.

Turning to NCI-H2085, the relative viability in assay [1] (first compound 0.08 µM) amounted to 0.818; in assay [1] (first compound 0.8 µM), 0.515; in assay [1] (first compound 2.53 µM) it was 0.682; in assay [1] (first compound 8 µM), 0.935; in assay [2] (first compound 0.04 µM) it was 0.882; in assay [2] (first compound 0.1265 µM), 1. Besides, the relative viability in assay [2] (first compound 0.4 µM) came to 0.979; in assay [2] (first compound 1.265 µM) it was 0.996; in assay [2] (first compound 4 µM) it was 0.842; in the assay with Tanzisertib + Bortezomib (first compound 0.08 µM), 1.11; with Tanzisertib + Bortezomib (first compound 0.253 µM) it was 1.08; with Tanzisertib + Bortezomib (first compound 0.8 µM), 0.992. The relative viability in the assay with Tanzisertib + Bortezomib (first compound 2.53 µM) amounted to 1.07; with Tanzisertib + Bortezomib (first compound 8 µM), 1.09; in assay [3] (first compound 0.08 µM) it was 0.744; in assay [3] (first compound 0.8 µM), 0.418; in assay [3] (first compound 2.53 µM), 0.801; in assay [3] (first compound 8 µM) it was 0.817.

As to NCI-H2087, the relative viability in assay [1] (first compound 0.08 µM) is 0.471; in assay [1] (first compound 0.8 µM), 0.616; in assay [1] (first compound 2.53 µM), 0.619; in assay [1] (first compound 8 µM), 0.573; in assay [2] (first compound 0.04 µM) it was 0.49; in assay [2] (first compound 0.1265 µM), 0.783. In addition, the relative viability in assay [2] (first compound 0.4 µM) amounted to 0.719; in assay [2] (first compound 1.265 µM), 0.499; in assay [2] (first compound 4 µM) it was 0.686; in the assay with Tanzisertib + Bortezomib (first compound 0.08 µM) it was 0.985; in the assay with Tanzisertib + Bortezomib (first compound 0.253 µM) it was 0.931; in the assay with Tanzisertib + Bortezomib (first compound 0.8 µM), 0.835. For the same cell line, the relative viability with Tanzisertib + Bortezomib (first compound 2.53 µM) was found to be 0.9; with Tanzisertib + Bortezomib (first compound 8 µM), 0.857; in assay [3] (first compound 0.08 µM), 0.459; in assay [3] (first compound 0.8 µM), 0.479; in assay [3] (first compound 2.53 µM) it was 0.496; in assay [3] (first compound 8 µM), 0.479.

Consider NCI-H2126, for which the relative viability in assay [1] (first compound 0.08 µM) was found to be 0.724; in assay [1] (first compound 0.8 µM) it was 0.591; in assay [1] (first compound 2.53 µM), 0.725; in assay [1] (first compound 8 µM), 0.698; in assay [2] (first compound 0.04 µM), 1.13; in assay [2] (first compound 0.1265 µM), 1.11. The relative viability in assay [2] (first compound 0.4 µM) came out at 1.17; in assay [2] (first compound 1.265 µM), 1.14; in assay [2] (first compound 4 µM), 1.22; with Tanzisertib + Bortezomib (first compound 0.08 µM), 1.11; in the assay with Tanzisertib + Bortezomib (first compound 0.253 µM), 1.18; with Tanzisertib + Bortezomib (first compound 0.8 µM), 1.09. Further, the relative viability with Tanzisertib + Bortezomib (first compound 2.53 µM) was determined as 1.11; with Tanzisertib + Bortezomib (first compound 8 µM), 1.2; in assay [3] (first compound 0.08 µM), 0.483; in assay [3] (first compound 0.8 µM) it was 0.51; in assay [3] (first compound 2.53 µM), 0.556; in assay [3] (first compound 8 µM), 0.577.
